Reference: patent US20140288188A1, “Process for Stabilizing Bacterial Content of Aqueous Ground Natural Calcium Carbonate and/or Precipitated Calcium Carbonate and/or Dolomite and/or Surface-Reacted Calcium Carbonate-Comprising Mineral Preparations” (priority 2011, published 2014)
Where two headings read alike, the source gives them in different places.

How the values were obtained:
[1] = test system: rGDA/IT bacteria culture (GDA/CIT/MIT-resistant); type: cell-based, Pseudomonas; settings: no BM1, GNCCS, one inoculation
Protocol: (§1) All quoted bacterial counts (Total Viable Count (TVC) values are in cfu/ml) in the Tables herebelow are determined after 48 hours following plate-out and in accordance with the counting method described in “Bestimmung von aeroben mesophilen Keimen”, Schweizerisches Lebensmittelbuch, chapter 56, section 7.01, edition of 1985, revised version of 1988.
BM1 and ethylene diamine (hereafter “EDA”) were introduced into 50 g samples of each of the slurries indicated in Table 1 in the listed amounts (quoted in ppm based on the weight of the aqueous phase in the slurry). The samples were then stored at 30° C. for 72 hours. References were prepared according to the same protocol but in absence of EDA and in absence of EDA and BM1.
The slurry samples were then inoculated with 1 ml of a mixture of rGDA/IT bacteria culture. Each of the samples was incubated at 30° C. for 24 hours. Thereafter, a 1:10 dilution in phosphate buffered saline (PBS) was plated on plate count agar (PCA). These plates were incubated at 30° C. and analysed after 48 hours.
The biocide-resistant calcium carbonate slurry culture rGDA/IT is GDA/CIT/MIT-resistant and was obtained from product storage tanks located at white mineral dispersion (WMD) manufacturing plants that used the related biocide to preserve the products. […]
BM1 and a diamine selected from 1,3-bis(aminomethyl)cyclohexane (hereinafter “AMC”), 1,3-bis(aminomethyl)benzene (hereinafter “AMB”), 1,7-diaminoheptane (hereinafter “DAH”), and 1,8-diamionoocatane (hereinafter “DAO”) were introduced into 50 g samples of each of the slurries indicated in Table 4 in the listed amounts (quoted in ppm based on the weight of the aqueous phase in the slurry). The samples were then stored at 30° C. for 72 hours. References were prepared according to the same protocol but in absence of the respective diamine used and in the absence of the respective diamine and BM1. […]

[2] = test system: rOPP bacteria culture (OPP-resistant); assay: Biocidal activity in ground natural calcium carbonate slurry (GNCCS), Total Viable Count after inoculation with rOPP culture; type: cell-based, Pseudomonas putida and Pseudomonas stutzeri; settings: one inoculation
Protocol: as §1
OPP, in the form of an aqueous solution having a concentration of 45%, and one of AMC, AMB, DAH, and DAO were introduced into 50 g samples of each of the slurries indicated in Table 6 in the listed amounts (quoted in ppm active content based on the weight of the aqueous phase in the slurry). References were prepared according to the same protocol but in absence of any one of AMC, AMB, DAH, and DAO. A reference was prepared according to the same protocol but in absence of AMC, AMB, DAH, and DAO and in absence of any biocide.
The slurry samples were then inoculated with 1 ml of a mixture of Pseudomonas species containing predominantly Pseudomonas putida and Pseudomonas stutzeri that are resistant to OPP. Each of the samples was incubated at 30° C. for 72 hours. Thereafter, a 1:10 dilution in phosphate buffered saline (PBS) was plated on plate count agar (PCA). These plates were incubated at 30° C. and analysed after […]. […]

Structure (SMILES) | TVC ([1]; diamine 750 ppm alone) | also measured
NCCN [EDA, ethylene diamine] |  | TVC ([1]; EDA 1050 ppm on aqueous phase alone): 1 × 10^6 cfu/ml
Oc1ccccc1-c1ccccc1 [OPP, orthophenylphenol, reference compound] |  | TVC ([2]; OPP 250 ppm alone): 1 × 10^6 cfu/ml
NCCCCCCCCN [DAO, 1,8-diamionoocatane] | 1 × 10^6 cfu/ml | TVC ([2]; diamine 750 ppm alone, no OPP): 1 × 10^6 cfu/ml
NCc1cccc(CN)c1 [AMB, 1,3-bis(aminomethyl)benzene] | 1 × 10^6 cfu/ml | 
NCC1CCCC(CN)C1 (stereo not shown) [AMC, 1,3-bis(aminomethyl)cyclohexane] | 1 × 10^6 cfu/ml | 
NCCCCCCCN [DAH, 1,7-diaminoheptane] | 1 × 10^6 cfu/ml | 
